Measured values published in patent US7166438B2, “In Vitro screening for ligands of the estrogen receptor” (priority 2001, dated 2007).
pEC50: −log10 of the molar value. Like-named read-outs stand apart in the source and are kept apart here.

Tests used:
ER = assay: Assay system I: transcriptional activation of an ER-dependent reporter gene; type: cell-based; details: in vitro; for EC50: read-out: Assay system I: Transcriptional activation of an ER-dependent reporter gene (EC50 in M) (converted)
Description: The problem of the invention is achieved by a method of an in vitro screening for a test substance (ligand) involving selecting and detecting by means of at least two assay systems comprising the following steps: • (i) in a first cellular or tissue assay system selecting the ligand having transcriptional activity • which is mediated by activation of ER and which is measured by detecting potency in the cellular or tissue assay system comprising ER and an ER-driven reporter gene, • whereby, in the first assay system, the ligand activates the potency with an EC50(ER) (half-maximally effective ligand concentration) lower than or equal to 10 nmol/l, and • detecting the activation of the transcription; and • (ii) in a second cell-free or enzymatic assay system, selecting the physical-chemical interaction (recruitment) of SRC-1 and fragments thereof, and of the ER • which is measured by detecting the potency of this interaction in the cell-free or enzymatic system • wherein the ligand activates the ER and induces interaction with the co-present SRC-1 and fragments thereof in the second assay system with a EC50(ER+SRC) higher than or equal to 100 nmol/l, and detecting the potency of the physical-chemical interaction of SRC-1 and fragments thereof and of ER.
The assay employed in this Example only used compounds which are characterized by estrogenic activity. The assays for finding the estrogenic compounds have already been developed and published. These assays are standard assays well known to the person skilled in the art.
(§1) Using the assay described in Example 2, we selected the compound 3′ 15β-dihydrocycloprop[14,15]estra-1,3,5(10),8-tetraene-3,17α-diol [iii] for further examination of its neurotropic and systemic estrogenic effects.

ER and SRC-1 protein = assay: Assay system II: SRC-1 recruitment by the activated ER (fluorescence resonance energy transfer, cell-free); type: biochemical; details: for Assay system II: First signs of significant interaction between ER and SRC-1 protein (dose in M): 175 ng his-tagged SRC-1 per well, significant = more than 2 times standard deviation from baseline; for Ratio between values measured in assay systems II and I: assay II dose / assay I EC50
From the text: Recruitment: Recruitment of SRC-1 relates to the comparison of the degrees of association by protein-protein interaction between co-present ER and SRC-1 in the absence or presence of an ER-agonist. Numerically, recruitment is defined by the molar concentration of ER-agonist which is required for the occurrence of a significant (more than 2 times standard deviation from baseline) protein-protein interaction between co-expressed ER and SRC-1 in a test system. The baseline is defined by the interaction measured in an identical test system to which no […] has been added.
The assay used in the present Example for investigating the recruitment of ER and co-activator SRC-1 is performed according to the publication of Gauchao ZHOH et al. (1998) Nuclear receptors have distinct affinities for co-activators: Characterization by fluorescence resonance energy transfer, Mol Endo, Vol 12, pp 1594–1604 especially on Page 1602. Furthermore, the assaysystem is described in WO/18124 from Cummings et al. Instead of the euriopium cryptate, mentioned in the International Application, europium chelate—100 ng of euriopium labeled anti-GST-antibody per well—is used in the assays. The labeled antibody was delivered from Wallac, now Perkin Elmer Lifesciences. (Eu-W1024 labeled anti-GST-Antibody for Lance Assays, Part Number AD 0065)
The SRC-1 is used at a concentration of 175 ng his-tagged SRC-1 per well. SRC-1 is present in every well of this assay system.

[1] = system: ovariectomized female rats; assay: Active avoidance behavior (cognitive performance) in ovariectomized female rats; type: in vivo, rat; details: subcutaneous, seven days, compared with 17β-estradiol
Description: (§2) Different doses of the compound of interest and the reference 17β-estradiol were administered subcutaneously in ovariectomized female rats for seven consecutive days. The effect of the compounds on the cognitive performance of experimental animals was evaluated by monitoring the acquisition, consolidation and retrieval of active avoidance behavior. Upon sacrifice, morphometric assessment was made of estrogen-sensitive organs (uterus, thymus, adrenal glands). Neurochemical effects were assessed by quantification of the transcription of ER-induced CNS-specific genes in different brain areas, endowed with different amounts of SRC-1.

oxytocin receptors = assay: Estrogen-dependent expression of oxytocin receptors in ventromedial nucleus of ovariectomized female rats; type: in vivo, rat; details: subcutaneous, seven days, compared with 17β-estradiol
Description: as §2

bcl-2 = assay: Transcription of estrogen-regulated gene bcl-2 in cerebral cortex of ovariectomized female rats; type: in vivo, rat; details: subcutaneous, seven days, equal dose comparison with 17β-estradiol
Description: as §2

[2] = system: peripheral estrogen-target organs (uterus, thymus, adrenal glands); assay: Morphometric assessment of estrogen-sensitive organs in ovariectomized female rats; type: in vivo, rat; details: subcutaneous
Description: as §2

ERβ = ERβ (Homo sapiens, UniProt Q92731); assay: Relative binding affinity to ERβ; details: relative to 17β-estradiol
From the text: as §1

ERα = target: T1, ERα (Homo sapiens, UniProt P03372); assay: Relative binding affinity to ERα; details: relative to 17β-estradiol
T1 sequence (P03372 1-595): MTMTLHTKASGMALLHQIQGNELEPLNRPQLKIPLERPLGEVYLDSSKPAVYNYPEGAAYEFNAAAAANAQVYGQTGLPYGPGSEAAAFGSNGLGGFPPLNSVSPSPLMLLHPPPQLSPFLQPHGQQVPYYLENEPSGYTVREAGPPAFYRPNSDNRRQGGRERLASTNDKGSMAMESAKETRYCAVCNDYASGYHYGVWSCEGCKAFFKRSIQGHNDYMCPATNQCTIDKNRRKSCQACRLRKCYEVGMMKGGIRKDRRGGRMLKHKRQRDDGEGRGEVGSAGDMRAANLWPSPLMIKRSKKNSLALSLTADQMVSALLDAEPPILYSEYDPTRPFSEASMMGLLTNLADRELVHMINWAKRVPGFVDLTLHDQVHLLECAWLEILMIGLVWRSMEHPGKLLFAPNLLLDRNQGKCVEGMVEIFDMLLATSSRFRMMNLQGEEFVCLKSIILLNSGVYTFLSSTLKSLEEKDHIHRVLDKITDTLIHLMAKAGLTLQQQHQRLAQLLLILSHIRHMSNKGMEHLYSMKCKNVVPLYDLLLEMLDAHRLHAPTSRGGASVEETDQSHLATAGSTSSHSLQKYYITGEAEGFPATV
From the text: as §1

Sequence of ERβ (Q92731 whole entry, species assumed): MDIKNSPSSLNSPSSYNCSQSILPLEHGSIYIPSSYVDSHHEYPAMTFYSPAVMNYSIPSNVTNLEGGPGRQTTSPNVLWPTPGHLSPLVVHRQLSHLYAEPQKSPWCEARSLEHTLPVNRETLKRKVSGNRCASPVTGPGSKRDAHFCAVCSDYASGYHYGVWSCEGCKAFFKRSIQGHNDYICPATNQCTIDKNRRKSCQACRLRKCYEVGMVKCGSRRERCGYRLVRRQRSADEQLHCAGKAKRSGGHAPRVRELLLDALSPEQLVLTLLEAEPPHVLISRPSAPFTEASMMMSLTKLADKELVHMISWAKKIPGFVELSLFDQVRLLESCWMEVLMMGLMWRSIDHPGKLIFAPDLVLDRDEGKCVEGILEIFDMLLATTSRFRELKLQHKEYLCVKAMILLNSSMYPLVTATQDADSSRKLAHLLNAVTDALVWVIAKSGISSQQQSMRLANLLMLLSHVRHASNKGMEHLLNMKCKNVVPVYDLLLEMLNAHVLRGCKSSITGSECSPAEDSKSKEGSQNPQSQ

Compound	pEC50 (ER; read-out: Assay system I: Transcriptional activation of an ER-dependent reporter gene (EC50 in M))	Assay system II: First signs of significant interaction between ER and SRC-1 protein (dose in M) (ER and SRC-1 protein)	Ratio between values measured in assay systems II and I (ER and SRC-1 protein)	EC50 (ER; listed as 17β-estradiol) [nM]	EC50 (ER) [nM]	recruitment of SRC-1 upon ER binding (in words) (ER and SRC-1 protein)	behavioral (cognitive) effect, retention of newly acquired active avoidance behavior [1]	induction of estrogen-dependent expression of oxytocin receptors in the ventromedial nucleus (VMN) (oxytocin receptors)	stimulation of transcription of antiapoptotic estrogen-regulated gene bcl-2 in the cerebral cortex (bcl-2)	capacity to induce estrogen-like effects in peripheral estrogen-target organs (uterus, thymus, adrenal glands) ([2]; seven consecutive days, compared with 17β-estradiol)	estrogen-dependent changes in peripheral estrogen-sensitive organs at behaviorally effective treatment ([2]; seven days)	relative affinity to ERβ, of that of 17β-estradiol (ERβ)	relative affinity to ERα, of that of 17β-estradiol (ERα)
CC12CCC3=C(CCc4cc(O)ccc43)C13CC3CC2O (stereo not drawn) [[iii], 3′,15β-dihydrocycloprop[14,15]-estra-1,3,5(10),8-tetraene-3,17α-diol]		10^−7 M	100.0		1		indistinguishable from that of 17β-estradiol	to a significantly lower degree than 17β-estradiol	to a higher degree than does 17β-estradiol given at an equal dose	several times lower than that of the natural estrogen 17β-estradiol	not associated with estrogen-dependent changes in peripheral estrogen-sensitive organs	25–30 per cent	25–30 per cent
C=CCC1CC(O)C2(C)CCC3c4ccc(O)cc4CCC3C12 (stereo not drawn) [[iv], 15β-allyl-estra-1,3,5,(10)-triene-3,17β-diol]		10^−7 M	25.0		4								
CCCC1CC(O)C2(C)CCC3c4ccc(O)cc4CCC3C12 (stereo not drawn) [[v], 15β-propyl-estra-1,3,5,(10)-triene-3,17β-diol]		10^−7 M	10.0		10								
